Assay results from patent US12569452B2, “Ophthalmic compositions comprising F6H8” (NOVALIQ GMBH, priority 2017, dated 2026).

How the values were obtained:
[1] = Quantitative autoradiography of whole head after single topical ocular dose of 14C-F6H8; format: in vivo, female Dutch Belted rabbits; conditions: single dose 35 μl
From the text: Quantitative Autoradiography: Animals are euthanized with sodium pentobarbital and blood is collected via cardiac puncture. Immediately after blood collection, the animals were frozen for quantitative autoradiography. The frozen heads are embedded in chilled carboxymethyl cellulose and frozen into blocks. Appropriate sections are collected on adhesive tape at […], in a Leica CM 3600 cryomicrotome. Mounted sections are exposed for 4 days on phosphor imaging screens along with fortified blood standards for subsequent calibration of the image analysis software and subsequently scanned using a Typhoon scanner. The autoradiographic standard image data are sampled using InterFocus Imaging Ltd. MCID™ Analysis software to create a calibrated standard curve. Specified tissues and fluids are analysed. Tissue concentrations are interpolated from each standard curve as nanocuries/g and then converted to ng equivalents/g on the basis of the test article specific activity.
The highest concentrations (>10000 ng equivalents ^14C—F6H8/g) are found in the anterior tissues in the order eyelid margin (443000)>internal eyelid (171000)>cornea (33500). Other tissues with high concentrations are the external eyelid skin, nasolacrimal duct, and nasal turbinates.

[2] = Ocular tissue distribution after multiple topical ocular doses of 14C-F6H8, liquid scintillation counting; format: in vivo, female Dutch Belted rabbits; conditions: for Mean concentration of radioactivity, Conjunctiva (bulbar) / Mean concentration of radioactivity, Conjunctiva (palpebral) / Mean concentration of radioactivity, Cornea / Mean concentration of radioactivity, Lacrimal gland (accessory) / Mean concentration of radioactivity, Lacrimal gland (main) / Mean concentration of radioactivity, Meibomian glands / Mean concentration of radioactivity, Sclera (anterior) / Mean concentration of radioactivity, Tears: multiple dose (nine doses)
Method: Animals are not fasted prior to dose administration. All animals receive single 35 μL-drops of the dose formulation in each eye, with the right eye dosed first. All collection times are based on the time of dosing of the second (left) eye for the last dose, as applicable.
After the dose is administered, the eye is allowed to close naturally. Each animal is then restrained for approximately 1 minute to prevent rubbing of the eyes.
Tears and Ocular Tissue Collection: Tears are collected from two animals per group per time point at 0.25, 0.5, 1, 2, 4, 8, and 24 hours post-dose following the single dose or the last dose of the multiple dose scheme. Tears are collected using Tear Flo Test (TFT) strips that were dye free. One strip of paper is used for each eye for each time point. Following collection, the tube containing the strip is placed on dry ice or stored at approximately −70° C. until analysed.
At the time of sacrifice, both eyes are enucleated and ocular tissues including Aqueous humour, Conjunctiva (bulbar), Conjunctiva (palpebral), Lacrimal gland (accessory), Lacrimal gland (main), Meibomian glands (tarsal plate), Choroid-Retinal pigmented epithelium (Choroid-RPE), Cornea, Iris-ciliary body (ICB), Retina, Sclera (anterior), Sclera (posterior), Vitreous humour are collected.
Radioanalysis: All samples are analyzed for radioactivity in a Model 2900TR liquid scintillation counter (Packard Instrument Company) for at least 5 minutes or 100,000 counts, utilizing Ultima Gold XR or Hionic Fluor scintillation cocktails (Perkin Elmer). Each sample is homogenized before radioanalysis, unless the entire sample is used for analysis. All samples are analyzed in duplicate if sample size allows.
For Conjunctiva (bulbar and palpebral), Cornea, Lacrimal gland (main), Meibomian glands, Retina, and Sclera (anterior and posterior), each sample is digested in 2M sodium hydroxide in ethanol (80:20, v:v) and maintained at room temperature or in an oven set no higher than 30° C. until dissolved. Scintillation cocktail is added, and the samples are shaken and analyzed directly by LSC.
For Lacrimal gland (accessory), each sample is digested in 2M sodium hydroxide in ethanol (80:20, v:v) and maintained at room temperature or in an oven set no higher than 30° C. until dissolved. The sample is homogenized by mixing and duplicate weighed aliquots are analyzed directly by LSC.
For Tears, at least 10 mL of Ultima Gold XR scintillation cocktail is added, and the samples are shaken and analyzed by LSC.
Multiple topical ocular administration: The rabbits receive twice daily doses (approximately 12 hours apart±20 minutes) of 35 μl ^14C—F6H8 administered to both eyes for four consecutive days, and on the fifth day receive a single dose in the morning to both eyes (a total of nine doses). The administered dose level at each dosing occasion is approximately 47 mg/eye, equivalent to […]. Following the last dose on Study Day 5, two animals per time point are sacrificed at 0.25, 0.5, 1, 2, 4, 8, and 24 hours post-dose in a sparse sampling profile. Ocular tissues (including tears collected prior to sacrifice) are collected from all animals at sacrifice.

[3] = multiple dose, between 0.25 and 4 hours post-dose

Highest concentration, cornea [1]: 33500 ng equivalents ^14C—F6H8/g
Highest concentration, eyelid margin [1]: 443000 ng equivalents ^14C—F6H8/g
Highest concentration, internal eyelid [1]: 171000 ng equivalents ^14C—F6H8/g
Mean concentration of radioactivity, Conjunctiva (bulbar) ([2]; 0.25 h after last dose): 8290 ng Equivalents ^14C-F6H8/g
Mean concentration of radioactivity, Conjunctiva (palpebral) ([2]; 0.25 h after last dose): 14000 ng Equivalents ^14C-F6H8/g
Mean concentration of radioactivity, Cornea ([2]; 0.25 h after last dose): 20600 ng Equivalents ^14C-F6H8/g
Mean concentration of radioactivity, Lacrimal gland (accessory) ([2]; 0.25 h after last dose): 7120 ng Equivalents ^14C-F6H8/g
Mean concentration of radioactivity, Lacrimal gland (main) ([2]; 0.25 h after last dose): 7090 ng Equivalents ^14C-F6H8/g
Mean concentration of radioactivity, Meibomian glands ([2]; 0.25 h after last dose): 222000 ng Equivalents ^14C-F6H8/g
Mean concentration of radioactivity, Sclera (anterior) ([2]; 0.25 h after last dose): 3550 ng Equivalents ^14C-F6H8/g
Mean concentration of radioactivity, Tears ([2]; 0.25 h after last dose): 2330000 ng Equivalents ^14C-F6H8/g
Mean concentration of radioactivity, Conjunctiva (bulbar) ([2]; 0.5 h after last dose): 5280 ng Equivalents ^14C-F6H8/g
Mean concentration of radioactivity, Conjunctiva (palpebral) ([2]; 0.5 h after last dose): 11900 ng Equivalents ^14C-F6H8/g
Mean concentration of radioactivity, Cornea ([2]; 0.5 h after last dose): 21000 ng Equivalents ^14C-F6H8/g
Mean concentration of radioactivity, Lacrimal gland (accessory) ([2]; 0.5 h after last dose): 8190 ng Equivalents ^14C-F6H8/g
Mean concentration of radioactivity, Lacrimal gland (main) ([2]; 0.5 h after last dose): 8140 ng Equivalents ^14C-F6H8/g
Mean concentration of radioactivity, Meibomian glands ([2]; 0.5 h after last dose): 145000 ng Equivalents ^14C-F6H8/g
Mean concentration of radioactivity, Sclera (anterior) ([2]; 0.5 h after last dose): 2650 ng Equivalents ^14C-F6H8/g
Mean concentration of radioactivity, Tears ([2]; 0.5 h after last dose): 872000 ng Equivalents ^14C-F6H8/g
Mean concentration of radioactivity, Conjunctiva (bulbar) ([2]; 1 h after last dose): 4440 ng Equivalents ^14C-F6H8/g
Mean concentration of radioactivity, Conjunctiva (palpebral) ([2]; 1 h after last dose): 11300 ng Equivalents ^14C-F6H8/g
Mean concentration of radioactivity, Cornea ([2]; 1 h after last dose): 27600 ng Equivalents ^14C-F6H8/g
Mean concentration of radioactivity, Lacrimal gland (accessory) ([2]; 1 h after last dose): 4770 ng Equivalents ^14C-F6H8/g
Mean concentration of radioactivity, Lacrimal gland (main) ([2]; 1 h after last dose): 4610 ng Equivalents ^14C-F6H8/g
Mean concentration of radioactivity, Meibomian glands ([2]; 1 h after last dose): 92900 ng Equivalents ^14C-F6H8/g
Mean concentration of radioactivity, Sclera (anterior) ([2]; 1 h after last dose): 3920 ng Equivalents ^14C-F6H8/g
Mean concentration of radioactivity, Tears ([2]; 1 h after last dose): 742000 ng Equivalents ^14C-F6H8/g
Mean concentration of radioactivity, Conjunctiva (bulbar) ([2]; 2 h after last dose): 3970 ng Equivalents ^14C-F6H8/g
Mean concentration of radioactivity, Conjunctiva (palpebral) ([2]; 2 h after last dose): 7510 ng Equivalents ^14C-F6H8/g
Mean concentration of radioactivity, Cornea ([2]; 2 h after last dose): 15900 ng Equivalents ^14C-F6H8/g
Mean concentration of radioactivity, Lacrimal gland (accessory) ([2]; 2 h after last dose): 5140 ng Equivalents ^14C-F6H8/g
Mean concentration of radioactivity, Lacrimal gland (main) ([2]; 2 h after last dose): 5040 ng Equivalents ^14C-F6H8/g
Mean concentration of radioactivity, Meibomian glands ([2]; 2 h after last dose): 100000 ng Equivalents ^14C-F6H8/g
Mean concentration of radioactivity, Sclera (anterior) ([2]; 2 h after last dose): 2080 ng Equivalents ^14C-F6H8/g
Mean concentration of radioactivity, Tears ([2]; 2 h after last dose): 832000 ng Equivalents ^14C-F6H8/g
Mean concentration of radioactivity, Conjunctiva (bulbar) ([2]; 4 h after last dose): 3840 ng Equivalents ^14C-F6H8/g
Mean concentration of radioactivity, Conjunctiva (palpebral) ([2]; 4 h after last dose): 6920 ng Equivalents ^14C-F6H8/g
Mean concentration of radioactivity, Cornea ([2]; 4 h after last dose): 17500 ng Equivalents ^14C-F6H8/g
Mean concentration of radioactivity, Lacrimal gland (accessory) ([2]; 4 h after last dose): 9280 ng Equivalents ^14C-F6H8/g
Mean concentration of radioactivity, Lacrimal gland (main) ([2]; 4 h after last dose): 8890 ng Equivalents ^14C-F6H8/g
Mean concentration of radioactivity, Meibomian glands ([2]; 4 h after last dose): 70300 ng Equivalents ^14C-F6H8/g
Mean concentration of radioactivity, Sclera (anterior) ([2]; 4 h after last dose): 3470 ng Equivalents ^14C-F6H8/g
Mean concentration of radioactivity, Tears ([2]; 4 h after last dose): 103000 ng Equivalents ^14C-F6H8/g
Mean concentration of radioactivity, Conjunctiva (bulbar) ([2]; 8 h after last dose): 2970 ng Equivalents ^14C-F6H8/g
Mean concentration of radioactivity, Conjunctiva (palpebral) ([2]; 8 h after last dose): 5160 ng Equivalents ^14C-F6H8/g
Mean concentration of radioactivity, Cornea ([2]; 8 h after last dose): 22000 ng Equivalents ^14C-F6H8/g
Mean concentration of radioactivity, Lacrimal gland (accessory) ([2]; 8 h after last dose): 5100 ng Equivalents ^14C-F6H8/g
Mean concentration of radioactivity, Lacrimal gland (main) ([2]; 8 h after last dose): 4650 ng Equivalents ^14C-F6H8/g
Mean concentration of radioactivity, Meibomian glands ([2]; 8 h after last dose): 52900 ng Equivalents ^14C-F6H8/g
Mean concentration of radioactivity, Sclera (anterior) ([2]; 8 h after last dose): 2650 ng Equivalents ^14C-F6H8/g
Mean concentration of radioactivity, Tears ([2]; 8 h after last dose): 32200 ng Equivalents ^14C-F6H8/g
Mean concentration of radioactivity, Conjunctiva (bulbar) ([2]; 24 h after last dose): 2750 ng Equivalents ^14C-F6H8/g
Mean concentration of radioactivity, Conjunctiva (palpebral) ([2]; 24 h after last dose): 4410 ng Equivalents ^14C-F6H8/g
Mean concentration of radioactivity, Cornea ([2]; 24 h after last dose): 16200 ng Equivalents ^14C-F6H8/g
Mean concentration of radioactivity, Lacrimal gland (accessory) ([2]; 24 h after last dose): 3480 ng Equivalents ^14C-F6H8/g
Mean concentration of radioactivity, Lacrimal gland (main) ([2]; 24 h after last dose): 3630 ng Equivalents ^14C-F6H8/g
Mean concentration of radioactivity, Meibomian glands ([2]; 24 h after last dose): 45500 ng Equivalents ^14C-F6H8/g
Mean concentration of radioactivity, Sclera (anterior) ([2]; 24 h after last dose): 2410 ng Equivalents ^14C-F6H8/g
Mean concentration of radioactivity, Tears ([2]; 24 h after last dose): 46800 ng Equivalents ^14C-F6H8/g
Highest mean concentration, Meibomian glands [2, 3]: 222000 ng equivalents ^14C—F6H8/g
Highest mean concentration, accessory lacrimal gland [2, 3]: 9280 ng equivalents ^14C—F6H8/g
Highest mean concentration, bulbar conjunctiva [2, 3]: 8290 ng equivalents ^14C—F6H8/g
Highest mean concentration, cornea [2, 3]: 27600 ng equivalents ^14C—F6H8/g
Highest mean concentration, main lacrimal gland [2, 3]: 8890 ng equivalents ^14C—F6H8/g
Highest mean concentration, palpebral conjunctiva [2, 3]: 14000 ng equivalents ^14C—F6H8/g
Highest mean concentration, tears [2, 3]: 2330000 ng equivalents ^14C—F6H8/g
Ocular tissue concentrations, multiple compared to single topical ocular administration ([2]; multiple vs single dose scheme): higher concentrations
Substance: ^14C-1-Perfluorohexyloctane [^14C-F6H8]
